Source: PubChem BioAssay AID1508612

Assay: passive permeability, PAMPA, ADME assay (AID 1508612)
Details: pH 7.4, 30.0 min, 50.0 µM

Compound	Papp [×10⁻⁶ cm/s]
COc1ccccc1S(=O)(=O)Nc1cnccc1C(=O)Nc1nc(-c2ccccc2)cs1	387
COc1ccc(CNC(=O)CCCn2nc(C)c3c(C)n(-c4ccc(C)cc4)nc3c2=O)cc1OC	235
Cn1nnnc1SCCCNCc1cccc(OCc2ccccc2Cl)c1	> 1000
COc1ccc(O)c2c(=O)c3c(OC)cc4c(c3oc12)C1C=COC1O4 (stereo not given)	890
COc1ccc(Cl)cc1NC(=O)c1sc2nc3c(cc2c1N)N1CCC3CC1	55
C[C@@]1(C(=O)Nc2ccc(F)nc2)CCCN1c1nc(Nc2cc(C3CC3)[nH]n2)c2cccn2n1	780
CC(=O)c1c(C)[nH]c(C(=O)Nc2cccc([S+](=O)([O-])Nc3cccnc3)c2)c1C	16.5
NC(=O)C1CCN(c2nc(-c3ccc(OCc4ccccc4)cc3)cs2)CC1	< 1
O=C(c1ccc2c(c1)ncn2-c1ccc(C(F)(F)F)cc1)N1CCCCC1	> 1000
Cc1cccc(CS(=O)(=O)c2ncc(Cl)c(C(=O)Nc3nc4ccc(F)cc4s3)n2)c1	261
N[C@@H](Cc1cc(Br)c(O)c(Br)c1)C(=O)O	3.64
COc1ccc(C2CC(=O)Nc3nc(N)sc32)cc1OC (stereo not given)	36.1
N#Cc1cnc(NS(=O)(=O)c2ccc(NC(=O)Cc3ccc(F)c(Cl)c3)cc2)s1	< 1
Cc1ccc(S(=O)(=O)Nc2ccc(OC(F)(F)F)cc2C(=O)Nc2nc(-c3ccccc3)cs2)cc1	1.6
COc1ccc(Nc2nc(-c3cccc(OC)c3)no2)cc1	34.5
Cc1cc(-c2nnc3n2CCCCC3)c(C)n1-c1ccc(C(C)(C)C)cc1	> 1000
N#Cc1ccc(-c2ccc(CNc3ccc(C4CCNCC4)cc3)o2)cc1	459
Oc1ccc(NCc2ccccc2OCc2ccccc2Cl)cc1	79.5
O=C(NCCCO)c1ccc(-c2ncc3cnc(-c4cccc(F)c4)cn23)cc1	32
Clc1ccc(-c2noc3ncnc(N4CCCCC4)c23)cc1	> 1000
CC(C)(N)CNC(=O)CC1CCC2(CC1)OOC1(O2)C2CC3CC(C2)CC1C3 (stereo not given)	488
Cc1nn2c(c1-c1ccccc1-c1ccccc1)N(Cc1ccccc1)CCC2	381
O=S(=O)(Nc1nccs1)c1ccc(NCc2cccc(Cl)c2O)cc1	18.4
CC(=O)c1c(C)[nH]c(C(=O)Nc2cccc([S+](=O)([O-])Nc3ccccn3)c2)c1C	11.6
COc1cccc(C(=O)Nc2nc(-c3nnn(-c4ccccc4C(F)(F)F)c3C)ns2)c1	383
O=c1cc(-c2nc(Nc3ccc(F)c(F)c3)c3ccccc3n2)cc[nH]1	396
Fc1ccc(Nc2nc(Nc3ccncc3)nc3ccccc23)cc1F	40.4

Compound	Papp [×10⁻⁶ cm/s]
C[S+](=O)([O-])c1ccc(-c2nc(C(=O)N3CCOCC3)n3ccncc23)cc1	8.31
CC1=C(C(=O)Nc2nncs2)C(c2ccccc2Br)N=C(Nc2nc3ccccc3o2)N1 (stereo not given)	128
CCc1cccc(C)c1Nc1c(-c2ccc(N(C)C)cc2)nc2ncccn12	> 1000
NC(=O)C1CCN(c2ncc(-c3cccc(F)c3)s2)CC1	896
OCc1ccc(-c2nn(Cc3ccccc3)c3ccccc23)o1	842
Cn1c(=O)cc(C(=O)NC2CCCc3c2[nH]c2c(Cl)cccc32)c2ccccc21 (stereo not given)	68
CNc1ccc(Br)cc(C(=O)/C=C/c2ccc(OC)cc2OC)c1=O	143
CCN(CC)C(=O)c1sc2c(c1C)c(=O)n(Cc1ccccc1)c(=O)n2CC(=O)Nc1ccc(OC)cc1	> 1000
COc1ccccc1-c1cc2c(ccn2C)c(C(=O)NCC2CCN(C)C(=O)C2)n1 (stereo not given)	317
CCc1cccc(NC(=O)c2c(C)oc3nc(C)nc(N4CCCC4)c23)c1	> 1000
CNc1nc(-c2cccc3ccccc23)ccc1C#N	985
O=C(NCc1ccccc1)C1CCN(c2nc(-c3ccc(Br)cc3)cs2)CC1	23.2
CCOC(=O)N1CCN(Cc2nc3c(c(=O)n(C)c(=O)n3C)n2CCC(C)C)CC1	765
C[C@@H]1CN(CC(=O)N2CC(C)(C)c3ncc(Cc4ccc(F)cc4)cc32)[C@@H](CN2CCOC[C@H]2C)CN1	> 1000
CC[C@@]1(O)C(=O)OCc2c1cc1n(c2=O)Cc2c-1nc1ccccc1c2CCNC(C)C	< 1
Cc1ccnc(NC(=S)N2CCN(c3ccc(Cl)c(Cl)c3)CC2)c1	> 1000
CCCC1=Nc2cc(C(=O)NC3CCCCC3)ccc2Sc2ccc(C)cc21	17.1
COc1cccc(CNc2ccc(S(=O)(=O)Nc3nccs3)cc2)c1	342
Cc1ccc(-c2cc(C(=O)Nc3ccc(S(=O)(=O)N(C)C)cc3)c3ccccc3n2)cc1C	23
O=C(C=Cc1cccnc1)NCCCCC1CCN(C(=O)c2ccccc2)CC1	130
O=C(Nc1ccc(S(=O)(=O)Nc2nccs2)cc1)c1cccnc1	< 1
Cc1ccnc(NC(=S)N2CCN(c3ncc(C(F)(F)F)cc3Cl)CC2)c1	930
FC(F)(F)c1ccccc1-c1nc(NCc2ccc(-c3cccnc3)cc2)c2ccccc2n1	786
Fc1cc(F)cc(Nc2nc(-c3ccncc3)nc3ccccc23)c1	84.9
CCOC(=O)N1CCN(Cc2nc3cc(NC(=O)c4ccc(OC)cc4)ccc3n2C(C)C)CC1	> 1000
COc1cccc(CNc2ccc([S+](=O)([O-])Nc3cc4ccccc4s3)cc2)c1O	888
CN(C)c1cccc(-c2ncnc(N3CCC(C(N)=O)CC3)n2)c1	244

Compound	Papp [×10⁻⁶ cm/s]
O=C1Nc2ccccc2/C1=C\c1cc(F)c(O)c(F)c1	26.9
O=C1Nc2c(Cl)cccc2/C1=C\c1cc(Cl)c(O)c(Cl)c1	58.8
Cc1sc2c(c1C)C(c1ccc(Cl)cc1)=N[C@@H](CC(=O)OC(C)(C)C)c1nnc(C)n1-2	> 1000
COc1cc([C@@H]2c3cc4c(cc3[C@H](O)[C@H]3COC(=O)[C@H]23)OCO4)cc(OC)c1OC	224
Cc1cccc(N2CCN(C(=O)Cn3ncc4c3-c3ccccc3OC4)CC2)c1C	676
COc1ccc(Cn2c(=O)[nH]c3cc(C(=O)NCCCN4CCCCC4)ccc3c2=O)cc1	16.8
Cc1ccc(CN2CCOC[C@H]2c2ncc(-c3cccc(F)c3)[nH]2)cc1	> 1000
CCCCn1cnc2cc(NC(=O)c3cc(OC)c(OC)c(OC)c3)ccc21	693
COc1ccnc(NC(=S)N2CCN(c3ccccc3C(F)(F)F)CC2)c1	489
CCc1ccc(NC(=O)c2[nH]c(C)c(C(C)=O)c2C)cc1[S+](=O)([O-])Nc1ccccc1C#N	74.2
COc1ccccc1C(=O)Nc1nnc(SCc2cc(=O)c3ccccc3[nH]2)s1	287
Cc1sc(NC(=O)Cc2ccc3c(c2)OCO3)nc1-c1ccc2c(c1)CCN2C	< 1
Cc1ccc(S(=O)(=O)Nc2ccccc2C(=O)Nc2nccs2)cc1	478
Oc1ccc(CNc2cccc(F)c2)c2cccnc12	< 1
COc1ccccc1NC(=O)C1=C(C)Nc2c(C(=O)Nc3cccc(C)c3)cnn2C1c1ccccc1Cl (stereo not given)	751
O=C1CCCC2=C1C(C1CCCCC1Cl)N=C(NC1NC3CCCCC3S1)N2 (stereo not given)	161
CCNc1oc(-c2cccc3ccccc23)nc1C#N	728
COC(=O)c1ccccc1NC(=O)c1ccccc1OC(F)F	> 1000
Cc1nc(N2CCN(c3ccccn3)CC2)c2c(C)c(C(=O)Nc3ccc(F)cc3Cl)sc2n1	> 1000
CCN(CC)CCCNC(=O)c1oc2c(c1C)-c1nn(Cc3ccc(Cl)cc3)cc1CC2	> 1000
NC(=O)C1CCN(c2nc(-c3ccc(Cl)cc3)cs2)CC1	191
CC(=O)Nc1ncc(S(=O)(=O)Nc2cnccc2C(=O)Nc2nc(-c3ccccc3)cs2)s1	21.4
O=C1NCc2cc(-c3cc4c(ccn4Cc4ccncc4)c(N4CCOCC4)n3)ccc21	189
O=C(Nc1ccc(N2CCN(C(=O)c3ccccc3F)CC2)cc1)c1cncc(Br)c1	> 1000
NC(=O)C1CCN(c2nc(-c3ccc(N)cc3)cs2)CC1	87.1
Cc1nc(Nc2n[nH]c3c2CN(C(=O)N[C@H](CN(C)C)c2ccccc2)C3(C)C)c2sccc2n1	2.31
CC(=O)NC1CCN(c2nc(-c3ccc(Br)cc3)cs2)CC1	789

Compound	Papp [×10⁻⁶ cm/s]
COc1cccc(C(=O)NCCSc2c(-c3ccc(F)cc3)[nH]c3ccccc23)c1OC	37
C#CCNC(=O)c1nc(-c2ccc([S+](C)(=O)[O-])cc2)c2cnccn12	< 1
CCN1CCN(CCCOc2ccc(-c3ccccc3)cc2)CC1	> 1000
O=[S+]([O-])(Nc1ccccc1)c1ccc(NCc2cccc(C(F)(F)F)c2F)cc1	306
O=C(NC[C@H]1Cn2c(-c3ccc(Cl)cc3)cnc2CO1)C1CCCC1	108
Cc1cc(N)c2cc(NC(=O)Nc3ccc4nc(C)cc(N)c4c3)ccc2n1	< 1
CC1=C(C(=O)NC2CCCCC2)C(c2ccccc2Br)N=C(Nc2nc3ccccc3o2)N1 (stereo not given)	734
CC(=O)c1c(C)[nH]c(C(=O)Nc2ccc(OCCCN(C)C)c(S(=O)(=O)Nc3ccc(Br)cc3)c2)c1C	74.7
Cc1ccc(OCCn2c(CCNC(=O)c3ccccc3Br)nc3ccccc32)cc1	993
Cc1ccc(-c2cc(C(=O)Nc3ccc(-n4cncn4)cc3)c3ccccc3n2)cc1C	< 1
Cc1ccc(-n2ncc3c(Nc4cccc(C(=O)O)c4)ncnc32)cc1	13.2
Fc1cnc(-c2ccccc2C(F)F)nc1NCC1CCN(c2cnccn2)C1 (stereo not given)	> 1000
COc1ccc(-c2noc([C@@H]3Cc4nc[nH]c4CN3C(=O)NC3CCCCC3)n2)cc1	517
NC(=O)C1CCN(c2nc(-c3cccc(Br)c3)cs2)CC1	788
NC(=O)C1CCN(c2nc(-c3ccc4c(c3)OCCCO4)cs2)CC1	629
CCCCCCCc1c(C)nc(N2CCOCC2)[nH]c1=O	> 1000
Cc1ccc(Nc2nc(C)c(NC(=O)c3ccc(C)cc3)c(Nc3ccc(C)cc3)n2)cc1	291
Cc1ccc(C(=O)Nc2nc(-c3ccccn3)cs2)cc1S(=O)(=O)N1CCOCC1	540
Cn1nnnc1Sc1ncnc2scc(-c3ccccc3F)c12	338
CC(C)(N)C(=O)N[C@H](COCc1ccccc1)C(=O)N1CCC2(CC1)CN(S(C)(=O)=O)c1ccccc12	819
Cn1c(=O)c2cc(C(=O)NCCCN3CCN(c4ccccc4F)CC3)sc2c2ccccc21	> 1000
CC(C)(C)OC(=O)N1CCN(c2ccc(NCc3ccc(-c4ccc(C#N)cc4)o3)cc2)CC1	338
COc1cccc(-c2csc(N3CCC(C(N)=O)CC3)n2)c1	638
O=C(Nc1nc(-c2ccccc2)cs1)c1ccncc1NS(=O)(=O)c1cccc(Cl)c1	754
